Laboratory results from patent US8431522B2, “Methods of inhibiting tumor cell proliferation” (The Board of Trustees of the University of Illinois, priority 2003, dated 2013).
Entries after “also recorded” stand apart in the source; their conditions may differ. Non-standard residues stand in square brackets, D forms with d. No end group written: not given here.

Tests used:
[1] = system: GFP-FoxM1B fusion protein; assay: Localization of GFP-FoxM1B fusion protein in transfected U2OS cells (fluorescence); format: cell-based, human; conditions: for targeting of GFP-FoxM1B protein to the nucleolus: cotransfection of expression vector
Excerpt: FIGS. 7A-H show nuclear localization of GFP-FoxM1B fusion protein following treatment with either pharmacological kinase inhibitors or dominant negative kinases. U20S cells were transiently transfected with CMV GFP-FoxM1B with the indicated pharmacological kinase inhibitors (B-D) or dominant-negative kinase expression vectors (E-H). Cells in panel (A) were untreated.
U2OS cells were transiently transfected in 2 well chamber slides (Nunc) with CMV GFP-FoxM1B expression constructs in the presence or absence of either CMV WT T7-p19^ARF, CMV HA-p19^ARF, or CMV expression constructs containing either N-terminal mutant T7-p19^ARF proteins (Δ1-14, Δ15-25, or Δ26-37) or V5-TAT-p19^ARF proteins (26-44; SEQ ID NO: 11, or 26-55; SEQ ID NO: 12). U2OS cells were transiently transfected with CMV EGFP expression vector containing the TAT-p19^ARF proteins (26-44; SEQ ID NO: 11, or 26-55; SEQ ID NO: 12). Forty-eight hours post transfection, cells were fixed in 4% Para-formaldehyde for 20 minutes at room temperature. GFP fluorescence or immuno-fluorescence with anti-HA antibody following TRITC conjugated secondary antibody was detected using a Zeiss microscope. U2OS cells were treated with 12 μM of the arrrarrKFVRSRRPRTASCALAFVN (SEQ ID NO: 10) peptide for 24 hours and then analyzed for TRITC fluorescence as described above.

[2] = system: FoxM1B transcriptional activity; assay: FoxM1B transcription assay with 6X FoxM1B TATA-luciferase reporter in transfected U2OS cells; format: cell-based, human
Experimental: U20S TetR cells were transiently co-transfected with the reporter 6X-FoxM1B-TATA-Luciferase and CMV-TO-FoxM1B (500 ng) alone or with increasing amounts of either CMV-DN-Cdk1, Cdk1 pharmacological inhibitor Alsterpaullone or CMV-Myt1. Results are expressed as the percent activity with respect to wild-type FoxM1B using four separate transfection experiments were performed in triplicate to calculate ±SD.
U20S TetR cells were transiently co-transfected with the reporter 6X-FoxM1B-TATA-Luciferase and CMV-TO-FoxM1B (500 ng) with CMV-DN-p90Rsk, CMV-DN-Ras or DN-AKT or with 50 μM of either U0126 or Ly294002 alone or together or with 25 μM of Akt inhibitor. Four separate transfection experiments were performed in triplicate to calculate ±SD.
A 6X FoxM1B/FoxA TATA-Luciferase utilized 6 copies of the FoxM1B/FoxA binding site (TTTGTTTGTTTG; SEQ ID NO: 6) from the cdx-2 promoter region driving expression of the CMV-TATA box luciferase reporter gene as described previously (Rausa et al., 2003, Mol. Cell. Biol. 23:437-449; Samadani et al., 1996, Mol. Cell. Biol. 16:6273-6284; Ye et al., 1997, Mol. Cell Biol. 17:1626-1641).
Inhibiting Cdk1 activity with either dominant negative (DN) Cdk1 or a pharmacologically active concentration of Alsterpaullone (1 μM) caused an 80% to 90% reduction in FoxM1B transcriptional activity (FIG. 6C). […] Consistent with these findings, stimulation of Cdk1 activity by co-transfection of either CMV Cdc25B or Cdc25C phosphatases enhanced FoxM1B transcriptional activity by 3.4-fold and 1.7-fold, respectfully (FIGS. 6B and 6D). […]
Human osteosarcoma U2OS cells were maintained in DMEM supplemented with 10% fetal calf serum, 1× Pen/Strep and 1× L-Glutamine (Gibco). […] Luciferase activity was determined as percent of wild type FoxM1B activity following normalization to Renilla activity. Experiments were performed at least four times in triplicate and mean±SD determined. […]

[3] = biological target: T1, FoxM1B protein (Homo sapiens, UniProt Q08050); assay: Co-immunoprecipitation of V5-tagged p19ARF sequences with GFP-FoxM1B from transfected U2OS extracts; format: binding; conditions: V5 antibody IP, GFP Western blot
T1 construct: expressed in transfected cells; host or cells: U2OS (human osteosarcoma) cells, transient transfection
T1 sequence (Q08050 1-748 isoform Q08050-2): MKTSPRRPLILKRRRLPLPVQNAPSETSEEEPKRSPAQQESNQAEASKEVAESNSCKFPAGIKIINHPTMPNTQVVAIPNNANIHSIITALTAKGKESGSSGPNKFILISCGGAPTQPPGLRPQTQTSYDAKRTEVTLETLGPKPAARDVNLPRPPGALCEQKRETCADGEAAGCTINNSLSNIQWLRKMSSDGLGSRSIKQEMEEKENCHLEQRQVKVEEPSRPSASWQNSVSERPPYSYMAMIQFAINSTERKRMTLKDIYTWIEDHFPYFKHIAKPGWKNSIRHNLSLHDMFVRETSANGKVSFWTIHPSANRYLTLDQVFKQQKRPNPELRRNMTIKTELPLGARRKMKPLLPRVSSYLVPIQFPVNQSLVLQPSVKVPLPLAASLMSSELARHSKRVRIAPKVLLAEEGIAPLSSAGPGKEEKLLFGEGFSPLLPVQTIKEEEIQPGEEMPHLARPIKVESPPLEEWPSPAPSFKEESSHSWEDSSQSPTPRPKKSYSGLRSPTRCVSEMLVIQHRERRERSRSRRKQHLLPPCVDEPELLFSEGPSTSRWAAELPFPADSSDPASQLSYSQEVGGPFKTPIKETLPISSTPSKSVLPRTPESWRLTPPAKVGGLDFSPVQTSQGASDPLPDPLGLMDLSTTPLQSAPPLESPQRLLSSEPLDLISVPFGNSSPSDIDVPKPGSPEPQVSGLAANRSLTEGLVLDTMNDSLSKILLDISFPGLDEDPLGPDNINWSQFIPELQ
Experimental: The p19 protein was immunoprecipitated from transfected protein extracts with V5 epitope antibody followed by Western blot analysis with GFP monoclonal antibody.
To identify p19 protein sequences that are sufficient for association with FoxM1B protein, Co-IP assays were performed with protein extracts prepared from U2OS cells that were transiently transfected with CMV GFP-FoxM1B expression plasmid and the CMV expression vector containing the V5 epitope tagged p19^ARF 26-44 or p19^ARF 26-55 sequences. At the amino terminus of either the p19^ARF sequences 26 to 44 or 26 to 55, we placed the protein transduction/nuclear localization domain ([…]; SEQ ID NO: 13) from the HIV-TAT protein (Becker-Hapak et al., 2001, Methods 24:247-256). Protein extracts were incubated with the V5 epitope tag antibody to IP the p19 protein followed by Western blot analysis with GFP monoclonal antibody to detect the GFP-FoxM1B fusion protein.

[4] = system: U2OS cells; assay: Cellular uptake and localization of TRITC-tagged peptide in U2OS cells; format: cell-based, human; conditions: 12 μM, three days
[5] = system: U2OS clone C3 cells; assay: Soft agar colony formation, Doxycycline induced CMV-TETO GFP-FoxM1B U2OS clone C3 cells; format: cell-based, human; conditions: 12 μM peptide, 1 μg/ml Doxycycline, two weeks
Experimental: (§1) The T-REx™-U2OS cells were purchased from Invitrogen Life Technologies (Catalog No. R712-07). The T-REx™-U2OS cells express the Tet repressor from pCEP4/tetR that was episomally maintained in tissue culture medium containing 10% fetal calf serum and drug selection with 50 μg/ml of Hygromycin B. Tetracycline regulation in the T-REx System was based on the binding of tetracycline to the TET repressor and de-repressing of the CMV-TETO promoter controlling expression of the gene of interest (Yao et al., 1998, Hum Gene Ther 9:1939-1950). […] U2OS cell colonies that were larger than 1 mm in size were scored after two weeks of growth on the soft agar.
In addition, the tetracycline (TET) regulated T-REx™ System described above was used to conditionally express the GFP-FoxM1B protein in U2OS cells to determine whether conditional overexpression of FoxM1B protein could enhance anchorage-independent growth of U2OS cells. […] The U2OS clone C3 cell line was selected to examine whether doxycycline induced FoxM1B-GFP expression enhanced anchorage-independent growth as assessed by propagation for two weeks on soft agar (Conzen et al., 2000, Mol Cell Biol 20:6008-6018).

[6] = system: parental U2OS cells; assay: Soft agar colony formation, parental (wild type) U2OS cells; format: cell-based, human; conditions: 12 μM peptide, two weeks
Experimental: as §1, with “9:1939-1950). The pCDNA4-TO GFP-FoxM1B expression plasmid provided in the T-REx™ system was generated as described previously (Major et al., 2004, Mol. Cell. Biol. 24:2649-2661) and transfected T-REx™-U2OS cells with linearized pCDNA4-TO GFP-Foxm1b expression plasmid to select clonal Doxycycline inducible GFP-Foxm1b U2OS cell lines. CMV-TETO GFP-FoxM1B U2OS clones were isolated by selection for three weeks with tissue culture medium containing 50 μg/ml of Hygromycin B and 250 μg/ml of Zeocin. […] Wild type U2OS cells or CMV-TETO GFP-Foxm1b U2OS clone C3 cells were grown in medium with or without 1 μg/ml of Doxycycline for 2 days prior to either adding the (D-Arg)9-p19^ARF 26-44 peptide or left untreated.” for “9:1939-1950).”

[7] = cotransfection of CMV expression vector, U2OS cells

## O=C1Cc2c([nH]c3ccc([N+](=O)[O-])cc23)-c2ccccc2N1 [Alsterpaullone, reference compound]
[1]; Alsterpaullone 1 μM
  nuclear localization of transfected CMV GFP-FoxM1B protein: Neither DN-Cdk1 nor Alsterpaullone (1 μM) altered nuclear localization

## KFVRSRRPRTASCALAFVN (Mus Musculus) [V5-TAT-p19^ARF 26-44]
[2]; [7]
  FoxM1B transcriptional activity: able to significantly decrease FoxM1B transcriptional activity
[1]
  targeting of GFP-FoxM1B protein to the nucleolus: targeted to the nucleolus
[3]
  association with FoxM1B protein (Co-IP): sufficient to associate with the FoxM1B protein

## KFVRSRRPRTASCALAFVNMLLRLERILRR (listed as Mus musculus) [V5-TAT-p19^ARF 26-55]
[2]; [7]
  FoxM1B transcriptional activity: able to significantly decrease FoxM1B transcriptional activity
[1]
  targeting of GFP-FoxM1B protein to the nucleolus: targeted to the nucleolus

## rrrrrrrrrKFVRSRRPRTASCALAFVN ([dR][dR][dR][dR][dR][dR][dR][dR][dR]KFVRSRRPRTASCALAFVN; listed as Mus musculus) [(D-Arg)9-p19^ARF 26-44 peptide, p19ARF 26-44 peptide containing nine D-Arg residues at the N-terminus]
[2]; 12 μM peptide, 24 hours, transfected U2OS cells
  FoxM1B transcriptional activity: significant reduction in FoxM1B transcriptional activity; also recorded: effective inhibitor of FoxM1B transcriptional activity
[4]
  transduction into cells and localization of peptide fluorescence: efficiently transduced into all of the cells and that its fluorescence localized to the nucleolus; also recorded: transduced into the cell and was localized to the nucleolus
[5]
  FoxM1B induced colony formation on soft agar: significantly diminished the ability of induced GFP-FoxM1B to stimulate colony formation
[6]
  colony formation on soft agar: significantly diminished the ability of the parental U2OS cells to form colonies on soft agar; also recorded: significantly inhibited colony formation of U2OS cells on soft agar
